From ChEMBL document CHEMBL1143710, “Synthesis, antifungal and antimicrobial activity of alkylphospholipids” (Bioorg Med Chem, 2007)
Values after ≈ are worked out from the molar mass of the structure shown. Active and inactive are the calls of the source. The rule behind the calls is not given here.

Key:
[1] = Toxicity assessed as haemolytic activity against human erythrocytes at 175 uM; type: cell-based, Erythrocyte; conditions: read-out: Activity
[2] = Toxicity assessed as haemolytic activity against human erythrocytes at 88 uM; type: cell-based, Erythrocyte; conditions: read-out: Activity
Escherichia coli = experiment: Antibacterial activity against Escherichia coli ATCC 25922 after 24 hrs; type: functional; conditions: ATCC 25922, 24 h
[3] = Toxicity assessed as haemolytic activity against human erythrocytes at 3.5 uM; type: cell-based, Erythrocyte; conditions: read-out: Activity
Candida albicans = experiment: Antifungal activity against Candida albicans ATCC 10231; type: functional
Cryptococcus neoformans = experiment: Antifungal activity against Cryptococcus neoformans ATCC 90112; type: functional
Staphylococcus aureus [4] = experiment: Antibacterial activity against methicillin-resistant Staphylococcus aureus after 24 hrs; type: functional
[5] = Toxicity assessed as haemolytic activity against human erythrocytes at 350 uM; type: cell-based, Erythrocyte; conditions: read-out: Activity
[6] = Toxicity assessed as haemolytic activity against human erythrocytes at 44 uM; type: cell-based, Erythrocyte; conditions: read-out: Activity
[7] = Toxicity assessed as haemolytic activity against human erythrocytes at 17.5 uM; type: cell-based, Erythrocyte; conditions: read-out: Activity
Staphylococcus aureus [8] = experiment: Antibacterial activity against Staphylococcus aureus ATCC 25923 after 24 hrs; type: functional; conditions: ATCC 25923, 24 h
Enterococcus = experiment: Antibacterial activity against vancomycin-resistant Enterococcus ATCC 51299 after 24 hrs; type: functional; conditions: ATCC 51299, 24 h
Pseudomonas aeruginosa = experiment: Antibacterial activity against Pseudomonas aeruginosa ATCC 27853 after 24 hrs; type: functional; conditions: ATCC 27853, 24 h
[9] = target: T1, Phospholipase B (Cryptococcus neoformans) (UniProt Q9P8P2); experiment: Inhibition of lysophosphatidic acid acyltransferase activity of Cryptococcus neoformans var. grubi H99 secreted PLB1 at 250 uM by radiometric assay method
T1 sequence (whole entry): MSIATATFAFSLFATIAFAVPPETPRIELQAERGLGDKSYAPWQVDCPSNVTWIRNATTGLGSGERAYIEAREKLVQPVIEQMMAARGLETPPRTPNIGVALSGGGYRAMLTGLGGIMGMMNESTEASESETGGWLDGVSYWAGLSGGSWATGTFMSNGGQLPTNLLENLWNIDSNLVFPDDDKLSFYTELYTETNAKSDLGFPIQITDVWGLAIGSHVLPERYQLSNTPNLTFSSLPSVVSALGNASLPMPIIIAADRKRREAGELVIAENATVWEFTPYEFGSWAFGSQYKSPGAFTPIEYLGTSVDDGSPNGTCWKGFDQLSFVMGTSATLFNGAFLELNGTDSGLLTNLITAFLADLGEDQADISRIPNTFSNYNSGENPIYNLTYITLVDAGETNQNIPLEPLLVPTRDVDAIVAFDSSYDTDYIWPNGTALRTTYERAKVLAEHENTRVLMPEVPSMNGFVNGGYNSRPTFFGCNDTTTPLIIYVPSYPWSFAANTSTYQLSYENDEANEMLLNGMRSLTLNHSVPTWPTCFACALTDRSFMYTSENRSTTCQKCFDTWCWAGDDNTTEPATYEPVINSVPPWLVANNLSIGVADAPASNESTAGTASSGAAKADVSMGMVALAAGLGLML

[10] = target: T1, Phospholipase B (Cryptococcus neoformans); experiment: Inhibition of […] activity of Cryptococcus neoformans var. grubi H99 secreted PLB1 at 250 uM by radiometric assay method
Streptococcus pneumoniae = experiment: Antibacterial activity against Streptococcus pneumoniae ATCC 46919 after 24 hrs; type: functional; conditions: ATCC 46919, 24 h
[11] = target: T1, Phospholipase B (Cryptococcus neoformans); experiment: Inhibition of lysophosphatidic acid acyltransferase activity of Cryptococcus neoformans var. grubi H99 secreted PLB1 at 25 uM by radiometric assay method
[12] = target: T1, Phospholipase B (Cryptococcus neoformans); experiment: Inhibition of […] activity of Cryptococcus neoformans var. grubi H99 secreted PLB1 at 25 uM by radiometric assay method

SMILES: CCCCCCCCCCCCCCCCCC(=O)NCC(COP(=O)([O-])OCC[N+](C)(C)C)OC (stereo not drawn)
- hemolysis at 175 µM [1]: 100%
- hemolysis at 88 µM [2]: 56%
- MIC (Escherichia coli): > 350 µM
- hemolysis at 3.5 µM [3]: 0%
- MIC (Candida albicans): 5.5 µM (≈ 2.95 µg/mL)
- MIC (Cryptococcus neoformans): 22 µM (≈ 11.8 µg/mL)
- MIC (Staphylococcus aureus [4]): 11 µM (≈ 5.9 µg/mL)
- hemolysis at 350 µM [5]: 100%
- hemolysis at 44 µM [6]: 5%
- hemolysis at 17.5 µM [7]: 0%
- MIC (Staphylococcus aureus [8]): 44 µM (≈ 23.6 µg/mL)
- MIC (Enterococcus): 22 µM (≈ 11.8 µg/mL)

SMILES: CCCCCCCCCCCCCCCCOP(=O)([O-])OCC[N+](C)(C)C [MILTEFOSINE]
- hemolysis at 175 µM [1]: 95%
- hemolysis at 88 µM [2]: 25%
- MIC (Pseudomonas aeruginosa): > 600 µM
- MIC (Escherichia coli): > 350 µM
- Activity [9]: Active
- hemolysis at 3.5 µM [3]: 0%
- MIC (Candida albicans): 5.5 µM (≈ 2.24 µg/mL)
- MIC (Cryptococcus neoformans): 2.75 µM (≈ 1.12 µg/mL)
- Activity [10]: Active
- MIC (Staphylococcus aureus [4]): 22 µM (≈ 8.97 µg/mL)
- MIC (Streptococcus pneumoniae): 11 µM (≈ 4.48 µg/mL)
- Activity [11]: Active
- hemolysis at 350 µM [5]: 100%
- hemolysis at 44 µM [6]: 5%
- hemolysis at 17.5 µM [7]: 0%
- MIC (Staphylococcus aureus [8]): 44 µM (≈ 17.9 µg/mL)
- Activity [12]: inactive
- MIC (Enterococcus): 44 µM (≈ 17.9 µg/mL)

SMILES: C[C@@H]1[C@H](O)[C@@H](C)/C=C/C=C/C=C/C=C/C=C/C=C/C=C/[C@H](O[C@@H]2O[C@H](C)[C@@H](O)[C@H](N)[C@@H]2O)C[C@@H]2O[C@](O)(C[C@@H](O)C[C@@H](O)[C@H](O)CC[C@@H](O)C[C@@H](O)CC(=O)O[C@H]1C)C[C@H](O)[C@H]2C(=O)O [AMPHOTERICIN B]
- MIC (Candida albicans): 0.54 µM (≈ 0.499 µg/mL)
- MIC (Cryptococcus neoformans): 0.54 µM (≈ 0.499 µg/mL)

SMILES: CCCCCCCC/C=C\CCCCCCCCCCCCOP(=O)([O-])OCC[N+](C)(C)C [ERUFOSINE]
- hemolysis at 175 µM [1]: 90%
- hemolysis at 88 µM [2]: 15%
- MIC (Escherichia coli): > 350 µM
- hemolysis at 3.5 µM [3]: 0%
- MIC (Candida albicans): 44 µM (≈ 21.5 µg/mL)
- MIC (Cryptococcus neoformans): 22 µM (≈ 10.8 µg/mL)
- MIC (Staphylococcus aureus [4]): 22 µM (≈ 10.8 µg/mL)
- hemolysis at 350 µM [5]: 100%
- hemolysis at 44 µM [6]: 0%
- hemolysis at 17.5 µM [7]: 0%
- MIC (Staphylococcus aureus [8]): > 350 µM
- MIC (Enterococcus): 11 µM (≈ 5.39 µg/mL)

SMILES: CCCCCCCCCCCCCCCCCCOP(=O)([O-])OCC[N+](C)(C)C [OCTADECYLPHOSPHONOCHOLINE]
- hemolysis at 175 µM [1]: 100%
- hemolysis at 88 µM [2]: 92%
- MIC (Escherichia coli): > 350 µM
- Activity [9]: Active
- hemolysis at 3.5 µM [3]: 0%
- MIC (Candida albicans): 1.4 µM (≈ 0.61 µg/mL)
- MIC (Cryptococcus neoformans): 1.4 µM (≈ 0.61 µg/mL)
- Activity [10]: Active
- MIC (Staphylococcus aureus [4]): 22 µM (≈ 9.58 µg/mL)
- hemolysis at 350 µM [5]: 100%
- hemolysis at 44 µM [6]: 60%
- hemolysis at 17.5 µM [7]: 0%
- MIC (Staphylococcus aureus [8]): 22 µM (≈ 9.58 µg/mL)
- Activity [12]: inactive

SMILES: CCCCCCCCCCCCCCCCCCOCC(O)COP(=O)([O-])OCC[N+](C)(C)C (stereo not drawn)
- hemolysis at 175 µM [1]: 100%
- hemolysis at 88 µM [2]: 86%
- MIC (Escherichia coli): > 350 µM
- hemolysis at 3.5 µM [3]: 0%
- MIC (Candida albicans): > 350 µM
- MIC (Cryptococcus neoformans): 88 µM (≈ 44.9 µg/mL)
- MIC (Staphylococcus aureus [4]): 11 µM (≈ 5.61 µg/mL)
- hemolysis at 350 µM [5]: 100%
- hemolysis at 44 µM [6]: 10%
- hemolysis at 17.5 µM [7]: 0%
- MIC (Staphylococcus aureus [8]): 22 µM (≈ 11.2 µg/mL)
- MIC (Enterococcus): 11 µM (≈ 5.61 µg/mL)

SMILES: CCCCC(CC)CNC(=O)CCCCCOP(=O)([O-])OCC[N+](C)(C)C (stereo not drawn)
- hemolysis at 175 µM [1]: 0%
- hemolysis at 88 µM [2]: 0%
- MIC (Escherichia coli): > 350 µM
- hemolysis at 3.5 µM [3]: 0%
- MIC (Candida albicans): > 350 µM
- MIC (Cryptococcus neoformans): > 350 µM
- MIC (Staphylococcus aureus [4]): > 350 µM
- hemolysis at 44 µM [6]: 0%
- hemolysis at 17.5 µM [7]: 0%
- MIC (Staphylococcus aureus [8]): > 350 µM
- MIC (Enterococcus): > 350 µM

SMILES: CCCCCCCCCOC(=O)CCCCCOP(=O)([O-])OCC[N+](C)(C)C
- hemolysis at 175 µM [1]: 0%
- hemolysis at 88 µM [2]: 0%
- hemolysis at 3.5 µM [3]: 0%
- MIC (Candida albicans): > 350 µM
- MIC (Cryptococcus neoformans): 175 µM (≈ 74.1 µg/mL)
- hemolysis at 44 µM [6]: 0%
- hemolysis at 17.5 µM [7]: 0%
